Laboratory results published in patent publication US20240108745A1, “BIOACTIVE SUBSTANCE CONJUGATE, PREPARATION METHOD THEREFOR AND USE THEREOF” (MEDILINK THERAPEUTICS (SUZHOU) CO., LTD., priority 2021, published 2024).

Tests used:
[1] = Tumor tissue distribution of antibody drug conjugates in HT29 xenografts (A1.9 and ADC in plasma/serum and tumor); type: in vivo, BALB/c Nude mice; conditions: BALB/c Nude, mouse, intravenous, 10 mg/kg, HT29 model, read-out: distribution difference of A1.9 in tumors compared with plasma
Method: Human colon cancer HT29 cells were purchased from ATCC. HT29 cells were adherently cultured in a […] culture dish, and the culture conditions were 1640 media containing 10% fetal bovine serum, and the cells were cultured at 37° C. in an incubator containing 5% CO2. When cells were in exponential growth phase, cells were digested with trypsin, harvested, counted, and inoculated.
After adapting to the laboratory environment for 2-5 days, BALB/c Nude mice were subcutaneously inoculated with HT29 cells in the right rib, with an inoculation amount of 5×10^6 cells/mouse and an inoculation volume of 0.2 ml (containing 50% Matrigel). The experiment was carried out when the tumor grew to about 200-300 mm^3.
The tumor tissue pieces were sheared into small size on ice, weighed and transferred to a grinding tube. The tissue homogenate was prepared by grinding them with normal saline solution at 1:5 (w/v); tissue homogenate supernatant was prepared by centrifugation for 10 min at 2˜8° C. and 1800× g, and then stored at −15˜−25° C. for use. Before use, it was taken out and left at 15-25° C., naturally warmed to room temperature, and then used.
For the analysis method of A1.9, refer to Example 6.9. […]

HT29 = test: Assay II of bioactive molecules on cell viability in vitro (CCK8); type: cell-based; conditions: Homo sapiens, HT-29; CCK8, 3-4 days
Method: (§1) Tumor cells NUCG-4, PC-9, HT29, NCI-H358, KYSE520, A431 and A549 were first cultured; the bioactive molecules or fragments of the present disclosure were co-cultured with tumor cells, and then CCK8 reagent (Dojindo Laboratories (Shanghai), Cat: CK04, Lot: JJ744) was added, and the activity of dehydrogenase in mitochondria was detected by reading (detection wavelength 450 nm) on a microplate reader (manufacturer: Molecular Devices, model: SpectraMax M2), to evaluate the inhibitory effect of bioactive molecules on cell proliferation.
(§2) In vitro cell viability assay method: the tumor cells were digested by conventional methods using trypsin, and cells in tube were collected and counted, and then resuspended in the corresponding assay media (containing 2% FBS), which was added to a 96-well plate at 5000-10000 cells/well. Bioactive molecules were diluted with DMSO, and then 100 μL was added to a 96-well plate, the initial concentration was 10 μM, followed by 3-fold serial dilution (12 concentration gradients). The plate was incubated for 3-4 days at 37° C. under 5% CO2. Then, 20 μL of CCK8 reagent was added to each well, and the reaction was carried out for 2-6 h. The plate was read on a microplate reader (detection wavelength was 450 nm).

KYSE520 = test: as above; type: cell-based; conditions: Homo sapiens, KYSE-520; CCK8, 3-4 days
Method: as §1, §2

PC-9 = test: as above; type: cell-based; conditions: Homo sapiens, CCK8, 3-4 days
Method: as §1, §2

A549 = test: as above; type: cell-based; conditions: Homo sapiens, CCK8, 3-4 days
Method: as §1, §2

NUCG-4 = test: as above; type: cell-based; conditions: CCK8, 3-4 days
Method: as §1, §2

NCI-H358 = test: as above; type: cell-based; conditions: Homo sapiens, CCK8, 3-4 days
Method: as §1, §2

A431 = test: as above; type: cell-based; conditions: Homo sapiens, A-431; CCK8, 3-4 days
Method: as §1, §2

NCl-H322M cells = test: Assay I of bioactive molecules on cell viability in vitro (CCK8); type: cell-based; conditions: Homo sapiens, read-out: EC50(nM), killing of NCl-H322M cells
Method: as §1, with “cells” for “cells NUCG-4, PC-9, HT29, NCI-H358, KYSE520, A431 and A549”, “molecules” for “molecules or fragments”
(§3) In vitro cell viability assay method: bioactive molecules (12 concentration gradients) were diluted with corresponding assay medium (containing 2% FBS). The tumor cells were digested by conventional methods using trypsin, and cells in tube were collected and counted, then resuspended in the corresponding assay media (containing 2% FBS). The diluted bioactive molecules were added to a 96-well plate, followed by the cells. Then, 20 μL of CCK8 reagent was added to each well, and the reaction was carried out for 4 h, then the plate was read on a microplate reader (detection wavelength was 450 nm). The experimental results are shown in Tables 6.1, 6.2, 6.3, 6.4, and 6.5.

PANC-1 cells = test: as above; type: cell-based; conditions: Homo sapiens, read-out: EC50(nM), killing of PANC-1 cells
Method: as §1, with “cells” for “cells NUCG-4, PC-9, HT29, NCI-H358, KYSE520, A431 and A549”, “molecules” for “molecules or fragments”
as §3

CC[C@@]1(O)C(=O)OCc2c1cc1n(c2=O)Cc2c-1nc1cc3c(cc1c2CCCO)OCO3 [Example A1.9, (S)-7-ethyl-7-hydroxy-14-(3-hydroxypropyl)-10,13-dihydro-11H-[1,3]dioxolo[4,5-g]pyrano[3′,4′:6,7]indolizino[1,2-b]quinolin-8,11(7H)-dione]
Kp [1]: ≤ 18 | EC50 (HT29): 20.3 nM | EC50 (KYSE520): 49.6 nM | EC50 (PC-9): 2.06 nM | EC50 (A549): 65.9 nM | EC50 (NUCG-4): 8.73 nM | EC50 (NCI-H358): 46.2 nM | EC50 (A431): 5.71 nM | EC50 (NCl-H322M cells): 30.4 nM | EC50 (PANC-1 cells): 94.5 nM
